In this assay the target is T1, recombinant human Meningioma Expressed Antigen 5 (MGEA5), also referred to as O-GlcNAcase (OGA) (Homo sapiens, UniProt O60502).
T1 construct: Full length OGA enzyme was purchased at OriGene (cat #TP322411); purchased OriGene TP322411
T1 sequence (O60502 1-916): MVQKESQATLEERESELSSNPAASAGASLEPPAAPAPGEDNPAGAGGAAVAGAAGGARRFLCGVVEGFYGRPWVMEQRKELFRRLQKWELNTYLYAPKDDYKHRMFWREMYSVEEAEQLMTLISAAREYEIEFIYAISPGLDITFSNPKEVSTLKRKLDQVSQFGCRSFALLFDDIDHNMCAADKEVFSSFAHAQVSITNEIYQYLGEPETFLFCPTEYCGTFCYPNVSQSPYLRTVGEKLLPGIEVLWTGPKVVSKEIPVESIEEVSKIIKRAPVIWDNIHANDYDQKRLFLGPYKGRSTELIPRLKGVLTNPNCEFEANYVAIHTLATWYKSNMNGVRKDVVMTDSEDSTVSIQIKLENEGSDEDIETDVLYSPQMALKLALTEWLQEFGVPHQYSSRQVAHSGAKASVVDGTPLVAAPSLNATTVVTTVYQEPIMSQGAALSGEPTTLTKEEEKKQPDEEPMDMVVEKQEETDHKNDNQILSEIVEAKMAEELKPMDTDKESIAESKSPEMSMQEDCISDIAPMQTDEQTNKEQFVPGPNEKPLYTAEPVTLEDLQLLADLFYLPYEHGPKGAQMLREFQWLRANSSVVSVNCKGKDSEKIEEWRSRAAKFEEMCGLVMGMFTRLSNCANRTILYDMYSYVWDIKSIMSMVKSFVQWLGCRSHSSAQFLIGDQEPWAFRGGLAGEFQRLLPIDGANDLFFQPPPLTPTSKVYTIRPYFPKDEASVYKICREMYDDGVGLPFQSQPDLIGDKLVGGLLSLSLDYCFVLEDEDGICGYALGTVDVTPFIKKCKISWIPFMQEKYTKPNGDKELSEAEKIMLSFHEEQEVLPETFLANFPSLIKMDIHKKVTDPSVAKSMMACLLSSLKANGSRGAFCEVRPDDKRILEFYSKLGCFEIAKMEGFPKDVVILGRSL
The assay is described as follows: OGA biochemical assay (inhibition of FM-GlcNAc hydrolysis, fluorescence). To be noted: FM-GlcNAc substrate; for IC50: 6 h at room temperature, read-out: Enzymatic hOGA, pIC50 (converted); for Emax: read-out: Enzymatic Emax (%). The text has this: The assay is based on the inhibition of the hydrolysis of fluorescein mono-β-D-N-Acetyl-Glucosamine (FM-GlcNAc) (Mariappa et al. 2015, Biochem J 470:255) by the recombinant human Meningioma Expressed Antigen 5 (MGEA5), also referred to as O-GlcNAcase (OGA). The hydrolysis FM-GlcNAc (Marker Gene technologies, cat #M1485) results in the formation of β-D-N-glucosamineacetate and fluorescein. The fluorescence of the latter can be measured at excitation wavelength 485 nm and emission wavelength 538 nm. An increase in enzyme activity results in an increase in fluorescence signal. Full length OGA enzyme was purchased at OriGene (cat #TP322411). The enzyme was stored in 25 mM Tris.HCl, pH 7.3, 100 mM glycine, 10% glycerol at −20° C. Thiamet G and GlcNAcStatin were tested as reference compounds (Yuzwa et al. 2008 Nature Chemical Biology 4:483; Yuzwa et al. 2012 Nature Chemical Biology 8:393). The assay was performed in 200 mM Citrate/phosphate buffer supplemented with 0.005% Tween-20. 35.6 g Na2HPO4 2H2O (Sigma, #C0759) were dissolved in 1 L water to obtain a 200 mM solution. 19.2 g citric acid (Merck, #1.06580) was dissolved in 1 L water to obtain a 100 mM solution. pH of the sodiumphosphate solution was adjusted with the citric acid solution to 7.2. The buffer to stop the reaction consists of a 500 mM Carbonate buffer, pH 11.0. 734 mg FM-GlcNAc were dissolved in 5.48 mL DMSO to obtain a 250 mM solution and was stored at −20° C. OGA was used at a 2 nM concentration and FM-GlcNAc at a 100 uM final concentration. Dilutions were prepared in assay buffer.
50 nl of a compound dissolved in DMSO was dispensed on Black Proxiplate™ 384 Plus Assay plates (Perkin Elmer, #6008269) and 3 μl fl-OGA enzyme mix added subsequently. Plates were pre-incubated for 60 min at room temperature and then 2 μl FM-GlcNAc substrate mix added. […] Plates were briefly centrifuged for 1 min at 1000 rpm and incubate at room temperature for 6 h. To stop the reaction 5 μl STOP buffer were added and plates centrifuge again 1 min at 1000 rpm. Fluorescence was quantified in the Thermo Scientific Fluoroskan Ascent or the PerkinElmer EnVision with excitation wavelength 485 nm and emission wavelength 538 nm.
For analysis a best-fit curve is fitted by a minimum sum of squares method. From this an IC50 value and Hill coefficient was obtained. High control (no inhibitor) and low control (saturating concentrations of standard inhibitor) were used to define the minimum and maximum values.

This note sets out measurements from patent publication US20210115040A1, “OGA INHIBITOR COMPOUNDS” (Janssen Pharmaceutica NV, priority 2018, published 2021).

On to `Cc1cc(C[C@H]2CCN(C(C)c3ccc4nc(C)sc4c3)C2)cc(C)n1` (some centres unmarked) [Compound 56], for which the IC50 is > 10000 nM. In addition, the Emax (maximal effect) was found to be 41%.
The corresponding values for `Cc1cc(C[C@H]2CCCN([C@H](C)c3ccc4cn(C)nc4n3)C2)cc(C)n1` (relative stereo) [Compound 12b] are 15.8 nM and 100%.
The corresponding values for `Cc1cc(C[C@H]2CCN(C(C)c3ccc4oc(C)nc4n3)C2)cc(C(F)(F)F)n1` (mixture of isomers) [Compound 29] are 126 nM and 103%.
The corresponding values for `COc1cc(O[C@@H]2CCN(C(C)c3ccc4oc(C)nc4n3)C2)cc(C)n1` (mixture of isomers) [Compound 21ab] are 251 nM and 97%.
Consider `Cc1cc(OC2CCCN(C(C)c3ccc4[nH]c(C)nc4n3)C2)cc(C(F)(F)F)n1` (centres unmarked) [Compound 5], for which the IC50 was 794 nM. The Emax (maximal effect) was 94%.
The corresponding values for `Cc1cc(C[C@H]2CCCN(Cc3ccc4cn(C)nc4c3)C2)cc(C)n1` [Compound 17] are 794 nM and 90%.
The corresponding values for `Cc1cc(OC[C@@H]2CCCN(C(C)c3ccc4sc(C)nc4n3)C2)cc(C)n1` (mixture of isomers) [Compound 45ab] are 316 nM and 98%.
As to `Cc1cc(C[C@H]2CCCN(C(C)c3cnc4[nH]c(C)nc4c3)C2)cc(C)n1` (single isomer, unassigned) [Compound 6b], the IC50 is 7.94 nM. For the same molecule, the “Enzymatic Emax (%)” value (maximal effect) is given as 100%.
Turning to `Cc1cc(C[C@@H]2CCN([C@H](C)c3cc4nc(C)oc4cc3F)C2)cc(C)n1` (relative stereo) [Compound 33a], the IC50 is 2.51 nM. Also, the Emax (maximal effect) is 100%.
The corresponding values for `Cc1cc(C[C@@H]2CCN(C(C)c3ccc4oc(C)nc4n3)C2)cc(C)n1` (mixture of isomers) [Compound 26] are 39.8 nM and 101%.
The corresponding values for `Cc1cc(C[C@H]2CCN([C@H](C)c3ccc4oc(C)nc4n3)C2)cc(C)n1` [Compound 27b] are > 10000 nM and 47%.
The corresponding values for `Cc1cc(OC[C@H]2CCCN(C(C)c3cc4nc(C)oc4cc3F)C2)cc(C)n1` (mixture of isomers) [Compound 34] are 10 nM and 101%.
As for `COc1cc(O[C@@H]2CCN([C@@H](C)c3ccc4oc(C)nc4n3)C2)cc(C)n1` [Compound 21a], the IC50 is > 10000 nM. For the same molecule, under “maximal effect”, the maximal effect (Emax) is 22%.
Turning to `Cc1cc(C2CCCN(C(C)c3cnc4[nH]c(C)nc4c3)C2)cc(C(F)(F)F)n1` (centres unmarked) [Compound 3], the IC50 is 316 nM. For the setting “maximal effect”, the Emax is 96%.
The corresponding values for `COc1cc(C2CCCN(C(C)c3cnc4[nH]c(C)nc4c3)C2)cc(C)n1` (centres unmarked) [Compound 2] are 200 nM and 97%.
The corresponding values for `COc1cc(C[C@@H]2CCN(C(C)c3ccc4sc(C)nc4n3)C2)cc(C)n1` (mixture of isomers) [Compound 44] are 126 nM and 99%.
Turning to `Cc1cc(C[C@H]2CCN([C@@H](C)c3ccc4oc(C)nc4n3)C2)cc(C)n1` [Compound 27a], the IC50 was 200 nM. The Emax (maximal effect) was found to be 99%.
`Cc1nc2nc(C(C)N3CC[C@H](Cc4cc(F)cc(F)n4)C3)ccc2o1` (some centres unmarked) [Compound 79]: the IC50 was 158 nM. In addition, where the note is “maximal effect”, the Emax is 99%.
The corresponding values for `Cc1cc(OC[C@@H]2CCCN([C@H](C)c3ccc4sc(C)nc4n3)C2)cc(C)n1` [Compound 45a] are 501 nM and 95%.
The corresponding values for `Cc1cc(C[C@H]2CCCN(C(C)c3ccc4occc4n3)C2)cc(C)n1` (mixture of isomers) [Compound 38] are 126 nM and 100%.
Turning to `COc1cc([C@H]2CCCN([C@H](C)c3cnc4[nH]c(C)nc4c3)C2)cc(C(F)(F)F)n1` [Compound 4a], the maximum response (Emax) (maximal effect) worked out at 50%.
Consider `Cc1cc(C[C@@H]2CCN([C@@H](C)c3cc4nc(C)oc4cc3F)C2)cc(C)n1` (relative stereo) [Compound 33b], for which the IC50 was 63.1 nM. Further, the Emax (maximal effect) worked out at 101%.
The corresponding values for `Cc1cc(C[C@@H]2CCN(C(C)c3cc4nc(C)oc4cc3F)C2)cc(C)n1` (mixture of isomers) [Compound 33ab] are 20 nM and 99%.
The corresponding values for `Cc1cc(C2CCCN(C(C)c3cc4nc(C)oc4cc3F)C2)cc(C)n1` (racemic) [Compound 32] are 7.94 nM and 99%.
Take `Cc1cc(C[C@H]2CCN(Cc3ccc4nc(C)sc4c3)C2)cc(C)n1` [Compound 55]: the IC50 was > 10000 nM. For the setting “maximal effect”, the Emax amounted to 18%.
The corresponding values for `COc1cc(C[C@@H]2CCN(C(C)c3ccc4oc(C)nc4n3)C2)cc(C)n1` (mixture of isomers) [Compound 28] are 100 nM and 99%.
Regarding `Cc1cc(C[C@H]2CCCN([C@@H](C)c3ccc4oc(C)nc4n3)C2)cc(C(F)(F)F)n1` [Compound 24b], the IC50 was 5010 nM. Further, for the setting “maximal effect”, the maximum response (Emax) came out at 69%.
The corresponding values for `Cc1cc(C[C@H]2CCCN(C(C)c3ccc4sc(C)nc4n3)C2)cc(C)n1` (single isomer, unassigned) [Compound 42a] are 501 nM and 98%.
The corresponding values for `COc1cc(C[C@H]2CCCN([C@@H](C)c3ccc4oc(C)nc4n3)C2)cc(C)n1` (relative stereo) [Compound 23b] are 200 nM and 101%.
The corresponding values for `Cc1cc(C[C@H]2CCCN(Cc3ccc4nc(C)sc4c3)C2)cc(C)n1` [Compound 53] are 3980 nM and 77%.
Take `COc1cc([C@H]2CCCN([C@@H](C)c3cnc4[nH]c(C)nc4c3)C2)cc(C(F)(F)F)n1` [Compound 4b]: the IC50 was 501 nM. Where the note is “maximal effect”, the maximal response (Emax) was 96%.
The corresponding values for `COc1cc(OC2CCCN(C(C)c3ccc4sc(C)nc4n3)C2)cc(C)n1` (centres unmarked) [Compound 41] are 126 nM and 101%.
With `Cc1cc(C[C@H]2CCCN(Cc3ccc4[nH]c(C)nc4c3)C2)cc(C)n1` [Compound 10], the IC50 is 1000 nM. Also, the Emax (maximal effect) amounted to 89%.
The corresponding values for `Cc1cc(C2CCCN(C(C)c3cnc4[nH]c(C)nc4c3)C2)cc(C)n1` (centres unmarked) [Compound 1] are 316 nM and 98%.
The corresponding values for `Cc1cc(C[C@H]2CCCN(Cc3ccc4oc(C)nc4n3)C2)cc(C)n1` [Compound 36] are 63.1 nM and 101%.
The corresponding values for `Cc1cc(OC[C@@H]2CCCN(C(C)c3cc4nc(C)oc4cc3F)C2)cc(C)n1` (mixture of isomers) [Compound 35] are 100 nM and 101%.

The term Emax denotes the maximal effect, on the per cent scale that the assay sets.
